Assay results reported in US9895345B2, “Use of Lappaol F to inhibit tumor cell growth” (The Research Foundation Foundation for the State University …, priority 2013, dated 2018).
pEC50: −log10 of the molar value. Entries after “also recorded” stand apart in the source; their conditions may differ.

What was measured:
HeLa cells = test: Flow cytometry cell cycle analysis; assay type: cell-based, Human; conditions: 50 μM, 72 hrs
Method: (§1) FIG. 2: Lappaol F induces G1 and G2 cell cycle arrest. (A) Flow cytometry cell cycle analyses performed on cells treated with vehicle (DMSO) or Lappaol F (50 μM) for 72 hrs. (B) DAPI staining of RKO cells treated with Lappaol F (50 μM) for 72 hours. The number of mitotic cells over the total cells (mitotic index, MI) is also shown.
(§2) Cell cycle profile was determined by flow cytometry as follows. For determining the mitotic index, cells treated with or without Lappaol F were stained with 4′, 6-diamidino-2-phenylindole (DAPI). The number of mitotic cells was counted under a fluorescence microscope. Over 600 cells were counted in each sample and experiments were repeated at least three times.

RKO cells [1] = test: Flow cytometry cell cycle analysis; assay type: cell-based, Human; conditions: 50 μM, 72 hrs
Method: as §1, §2

MCF-7 cells [2] = test: Flow cytometry cell cycle analysis; assay type: cell-based, Human; conditions: 50 μM, 72 hrs
Method: as §1, §2

MDA-MB-231 cells [3] = test: Flow cytometry cell cycle analysis; assay type: cell-based, Human; conditions: 50 μM, 72 hrs
Method: as §1, §2

mutant-p53 = test: Mutant-p53 expression by Western blotting; assay type: cell-based, Human
Method: (§3) FIG. 7: Lappaol F suppresses expression of mutant-p53 by reducing its half-life. A-C. Lappaol F has minimal effect on wild-type p53 protein expression in cells (MCF-7 and RKO) expressing wild-type p53 (A & C); however, Lappaol F strongly reduces mutant-p53 protein expression in MDA-MB-231, MDA-MB-468 and T47D cells (B & C). D & E. Treatment of Lappaol F reduces mutant-p53 protein half-life in MDA-MB-231 cells. Cells were first treated with or without with Lappaol F (50 μM) for 24 hours, cycloheximide (50 μg/ml) was then added into the cell culture medium for 0-8 hours and cells were harvested at 0, 2, 4, 6 and 8 hours after cycloheximide was added. Samples were subjected to Western blot analysis and the half-life of mutant p53 for cells treated with or without Lappaol F was determined F & G. Lappaol F decreases mutant p53 protein half-life in T47D cells. Mutant-p53 half-life was determined as described.
(§4) Western blotting was done by standard protocols. Sources of the antibodies are as follows: antibodies for p21 and GAPDH were from Santa Cruz Biotechnology (Santa Cruz, Calif.); cyclin B1 antibody was from BD bioscience (San Jose, Calif.); p27 antibody was from Cell Signaling Technology (Danvers, Mass.). CDK1 and CDK2 were from Assay Biotechnology (Sunnyvale, Calif.). […]

c-Myc, MDM2 and HuR = test: Oncogenic protein expression by Western blotting; assay type: cell-based, Human; conditions: 50 μM
Method: FIG. 8: Lappaol F down regulates the expression of several oncogenic proteins commonly overexpressed in human cancers and linked to oncogenic transformation. A-C. Lappaol F suppresses the expression of c-Myc (A), MDM2 (B) and HuR (C). Cells were untreated (“C”) or treated with Lappaol F (50 μM) for the indicated times and Western blot analyses were performed using the indicated antibodies.
(§5) Western blotting was done by standard protocols. Sources of the antibodies are as follows: antibodies for p21 and GAPDH were from Santa Cruz Biotechnology (Santa Cruz, Calif.); cyclin B1 antibody was from BD bioscience (San Jose, Calif.); p27 antibody was from Cell Signaling Technology (Danvers, Mass.). CDK1 and CDK2 were from Assay Biotechnology (Sunnyvale, Calif.). Northern blot analysis was performed. and a full-length p21 cDNA was used as a probe for detecting the expression of p21 mRNA.

[4] = test system: p21 promoter in RKO p53-deficient (p53-/-) cells; test: p21 promoter luciferase assay; assay type: cell-based, Human; conditions: 50 μM, 24 hours
Method: (§6) FIG. 6: Lappaol F induces p21-promoter activation in cells with wild-type p53 and defective-p53. A&B MCF-7, MDA-MB-231 and RKO cells were untreated (DMSO) or treated with Lappaol F (50 μM) for 48 hrs; cells were then split into two parts; one part was used to analyze p21 mRNA expression by Northern blotting (A) and another part was utilized for p21 protein analysis by Western blotting (B). A full-length p21 cDNA was used as a probe for Northern blot analysis. C & D. p21 promoter luciferase activity in Lappaol F-treated and untreated cells with different p53 status. RKO and MCF-7 cells express the wild type-p53 protein whereas MDA-MB-231 expressing the mutant-p53. Hela cells harbor human papilloma virus; and p53 protein is not functional in these cells. Cells, transfected with p21 promoter luciferase construct, were untreated (DMSO) or treated with Lappaol F (50 μM) for 24 hours then analyzed for luciferase activity.
(§7) Luciferase assays were performed as follows. Briefly, cells transiently transfected with the p21-promoter luciferase construct were treated with or without Lappaol F (50 μM). Twenty-four hours later, luciferase activity of each cell lysate was analyzed using the Luciferase assay system (Thermo Scientific, Rockford, Ill.) with LUMAT LB9507 luminometer (Berthold Technologies, Germany).

[5] = test system: p21 promoter in RKO p53-proficient (p53+/+) cells; test: p21 promoter luciferase assay; assay type: cell-based, Human; conditions: 50 μM, 24 hours
Method: as §6, §7

wild-type p53 = test: Wild-type p53 expression by Western blotting; assay type: cell-based, Human
Method: as §3, §4

[6] = test system: tumor cell lines of different tissue types; test: Initial cytotoxic screening (colony formation, microscopy); assay type: cell-based, Human; conditions: colon, breast, lung, cervix lines; 50 μM, 72 hours
Method: (§8) FIG. 1: A. The chemical structure of Lappaol F. B & C. […] Cells shown were treated with or without Lappaol F (50 μM) for 72 hours. D & E. Results of 3-[4, 5-dimethylthiazol-2-yl]-2, 5-diphenyl tetrazolium bromide (MTT) assays showing Lappaol F inhibits tumor cell growth in time- and dose-dependent manners in different cancer cell lines. F & G. MCF10A non-tumorigenic breast epithelial cells treated with Lappaol F (50 μM) for 3 days (F) or 6 days (G). After treatment, cells were harvested for MTT assays (G) or photographs were taken under a phase contrast microscope (F). H. Results of colony formation assay showing that Lappaol F inhibits colony formation by A549 (lung), HCT116 (colon) and DU145 (prostate) tumor cells. I-N. Results of MTT assays showing Lappaol F suppresses cell growth in leukemia, melanoma and sarcoma cell lines.

[7] = test system: caspases 8, 9 and 3 in MDA-MB-231 cells; test: Caspase activation by Western blotting; assay type: cell-based, Human; conditions: 50 μM
Method: (§9) FIG. 4: Effect of Lappaol F on caspase activation. The indicated cells were treated with vehicle (DMSO) or Lappaol F (50 μM) for indicated time. Activation of caspases 8, 9 and 3 (indicated by reduced levels of procaspases) was analyzed by Western blotting using indicated antibodies. “C”: vehicle-treated control.
as §5

[8] = test system: caspases 8, 9 and 3 in HeLa cells; test: Caspase activation by Western blotting; assay type: cell-based, Human; conditions: 50 μM
Method: as §9, §5

[9] = test system: caspases 8 and 9 in MCF-7 cells; test: Caspase activation by Western blotting; assay type: cell-based, Human; conditions: 50 μM
Method: as §9, §5

RKO cells [10] = test: MTT cell proliferation assay; assay type: cell-based, Human; conditions: read-out: estimated absolute EC50 of cell growth suppression
Method: (§10) MTT cell proliferation assays were performed as follows. Briefly, cells seeded in 12-well plate with or without drug treatment were incubated with 0.5 mg/ml 3-[4, 5-dimethylthiazol-2-yl]-2, 5-diphenyl tetrazolium bromide (MTT) for 1-4 hours. The resulting formazan precipitate was dissolved in isopropanol with 0.04 M HCl. Absorbance was read with a Bio-Rad SmartSpec 3100 at 570 nm with background subtraction read at 690 nm.

MCF-7 cells [11] = test: MTT cell proliferation assay; assay type: cell-based, Human; conditions: read-out: estimated absolute EC50 of cell growth suppression
Method: as §10

MDA-MB-231 cells [12] = test: MTT cell proliferation assay; assay type: cell-based, Human; conditions: read-out: estimated absolute EC50 of cell growth suppression
Method: as §10

RKO cells [13] = test: Mitotic index by DAPI staining; assay type: cell-based, Human; conditions: 50 μM, 72 hours
Method: as §1, §2

HeLa tumor xenografts = test: HeLa xenograft tumor growth in nude mice; assay type: in vivo, BALB/c nude mice
Source text: All animal studies were approved and performed according to Animal Care and Use Guidelines of the Animal Ethics Committee at Guangzhou University of Chinese Medicine (Document No. syxk (Yue) 2008-0001). BALB/c nude mice (female, 4-5 weeks old) were first subcutaneously injected with 5×10^6 of HeLa cells on the back to establish tumor xenografts. Nine-days after tumor cell injection, mice with tumor volume of 90 mm^3-290 mm^3 were randomized into 3 groups; the average initial tumor volumes in each treatment group of mice were 161.28±23.9 mm^3 (for vehicle control), 160.7±17 7 mm^3 (for mice treated with Lappaol F 5 mg/kg) and 144.5±20 5 mm^3 (for mice treated with Lappaol F 10 mg/kg), respectively. Mice were then treated with Lappaol F (5 mg/kg/d, N=7; or 10 mg/kg/d, N=6) or with equivalent volume of vehicle (5% DMSO plus 5% Tween 80 in 5% glucose solution, 5 mL/kg/day, N=7) by intravenous injection for 15 days. Tumor size was monitored by measuring two perpendicular diameters with a caliper every 4 days. The tumor volume was calculated as volume=length×width^2×0.5. Cases of death and body weight in mice were monitored daily. The animal experiments were terminated on day 15 (tumor size exceeded a mean diameter of 20 mm in control animals) by sacrificing mice according to the guidelines. Tumor xenografts were then stripped and weighed. All results were expressed as Mean±standard error of the mean (SEM). Effects of various treatments were analyzed using the ONE-WAY ANOVA analysis and P-values <0.05 were considered statistically significant.

[14] = test system: MCF10A non-cancerous breast epithelial cells; test: MTT assay / phase contrast microscopy on non-tumorigenic cells; assay type: cell-based, Human; conditions: 50 μM, 3 days or prolonged to six days
Method: as §8, §10

[15] = test system: p21, p27, CDK2, cyclin B and CDK1; test: Cell cycle regulatory protein expression by Western blotting; assay type: cell-based, Human; conditions: 50 μM, different cell lines
Method: FIG. 3: Regulation of key cell cycle regulatory proteins by Lappaol F. A-D. The indicated cells were treated with vehicle (DMSO) or Lappaol F (50 μM) for indicated time and protein expression of different cell cycle regulatory protein was analyzed by Western blotting. “C”: vehicle-treated control.
as §5

[16] = test system: p21 promoter (RKO, MCF-7, Hela, MDA-MB-231); test: p21 promoter luciferase assay in four cell lines; assay type: cell-based, Human; conditions: 50 μM, 24 hours
Method: as §6, §7

SMILES: COc1cc([C@H]2Oc3c(OC)cc(C[C@H]4COC(=O)[C@@H]4Cc4cc(OC)c5c(c4)[C@H](CO)[C@@H](c4ccc(O)c(OC)c4)O5)cc3[C@@H]2CO)ccc1O [Lappaol F]
- cell cycle arrest phase (HeLa cells): predominantly arrested in 2N G1-phase
- sub-2N cell death population (sub-G1) (HeLa cells): 15%
- cell cycle arrest phase (RKO cells [1]): mainly arrested in 4N G2- (or M)-phase
- cell cycle arrest phase (MCF-7 cells [2]): predominantly arrested in 2N G1-phase
- cell cycle arrest phase (MDA-MB-231 cells [3]): mainly arrested in 4N G2- (or M)-phase
- levels of mutant-p53 (mutant-p53; MDA-MB-231 cells): significantly reduced
- mutant-p53 expression (mutant-p53; MDA-MB-468 and T47D cells): strongly inhibited
- expression of c-Myc, MDM2 and HuR oncoproteins (c-Myc, MDM2 and HuR): strongly down-regulates
- upregulation of p21 promoter activity [4]: 8.3 folds
- induction of the p21 promoter [5]: 3.5 fold
- levels of wild-type p53 (wild-type p53; MCF-7 cells): no significant influence
- expression levels of wild-type-p53 (wild-type p53; RKO cells): did not significantly affect
- growth inhibitory effect against tumor cell lines [6]: strong growth inhibitory effect
- caspase activation [7]: activation of caspases 8, 9 and 3 was observed
- caspase activation [8]: elicited caspases 9 and 3 activation
- caspase activation [9]: no clear evidence of caspase activation
- pEC50 (RKO cells [10]): 4.60
- pEC50 (MCF-7 cells [11]): 4.88
- pEC50 (MDA-MB-231 cells [12]): 4.77
- mitotic nuclei (mitotic index) (RKO cells [13]): no mitotic nuclei were observed
- inhibition of tumor growth relative to vehicle (HeLa tumor xenografts; 5 mg/kg/day i.v., 15 days): 54%
- inhibition of tumor growth relative to vehicle (HeLa tumor xenografts; 10 mg/kg/day i.v., 15 days): 64%
- lethality / body weight change in mice (HeLa tumor xenografts; 5 and 10 mg/kg/day i.v., 15 days): without significant body weight changes; also recorded: did not observe lethality or weight loss
- effect on HeLa xenografts by intraperitoneal injection (HeLa tumor xenografts; intraperitoneal injection): did not show any significant effect
- cytotoxicity towards MCF10A non-cancerous breast epithelial cells [14]: minimal cytotoxicity
- expression levels of CDK inhibitors p21 and p27 [15]: strikingly elevated
- levels of CDK2, cyclin B and CDK1 [15]: clearly reduced
- p21 promoter activity [16]: significantly enhanced
